Data on one molecule can be found in patent US5240928A, “Substituted quinazolinones as angiotensin II antagonists” (Merck & Co., Inc., priority 1991, dated 1993).

This data set in a line: pKa. The format is physicochemical.

As for `CCCc1nc2ccc(C)cc2c(=O)n1Cc1ccc(-c2ccccc2-c2nn[nH]n2)cc1` [Example 76], the pKa stood at 4.7.
